Experimental data reported in patent US4409210A, “Antibiotic compound” (priority 1982, dated 1983).
≈ marks a conversion by molar mass, not a printed value. Read-outs that look alike come from different tables or passages of the source. *1 amine or outer side, *2 acyl side, *3 side chain or, on linkers, in order; H or OH if unused. Where a SMILES comes first, the peptide text is derived from it. Bridges are numbered along the chain shown (N, C = ends). [ ]: non-standard residue; d: D form. ξ: configuration not given here. X2 = CCCCCCCCCCCC(CC(=O)[*:1])O[*:2]; ξAsp(3ξ-OH) = NC(C(=O)O)C(O)C(=O)O; X1 = O=C(C1C(O)CCN1[*:1])[*:2]

Tests used:
Strain G393-B445 = assay: Antibiotic sensitivity, paper disc-agar diffusion method; format: cell-based, Empedobacter sp.; design: key: S (sensitive); R (resistant); I (intermediate); details: nutrient agar, 2 day's incubation at 28° C., Difco discs, amount/disc per antibiotic
E. coli NIHJ = assay: as above; format: cell-based; design: key: S (sensitive); R (resistant); I (intermediate); details: nutrient agar, 2 day's incubation at 28° C., Difco discs, amount/disc per antibiotic
[1] = system: Streptococcus pyogenes S-23; assay: MIC, serial two-fold dilution method (aerobic); format: cell-based
[2] = system: Streptococcus pneumoniae IID-Type-I; assay: MIC, serial two-fold dilution method (aerobic); format: cell-based; details: for MIC: read-out: minimum inhibitory concentration (MIC)
[3] = system: Streptococcus pneumoniae A9585; assay: MIC, serial two-fold dilution method (aerobic); format: cell-based
[4] = system: Streptococcus pneumoniae A15069; assay: MIC, serial two-fold dilution method (aerobic); format: cell-based
[5] = system: Neisseria gonorrhoeae A15112; assay: MIC, serial two-fold dilution method (aerobic); format: cell-based
[6] = system: Haemophilus influenzae A9729; assay: MIC, serial two-fold dilution method (aerobic); format: cell-based
[7] = system: Haemophilus influenzae A22481; assay: MIC, serial two-fold dilution method (aerobic); format: cell-based
S. aureus Smith = assay: Experimental infection of mice, PD50; format: in vivo; details: observed 5 days
S. aureus BX-1633 = format: in vivo, mice; details: Exp. Run No. C-1319, observed 5 days
S. pyogenes A20201 = assay: Experimental infection of mice, PD50; format: in vivo; details: observed 5 days
C. perfringens A9635 = format: in vivo, mice; details: observed 5 days
staphylococci = assay: MIC summary, staphylococci; format: cell-based; details: against staphylococci
streptococci = assay: MIC summary, streptococci; format: cell-based; details: against streptococci
[8] = system: gram-positive rods and cocci (Clostridium, Peptostreptococcus, Propionibacterium acnes); format: cell-based; details: various species of Clostridium and Peptostreptococcus and strains of Propionibacterium acnes
[9] = system: Anaerobic gram-negative rod bacteria, such as Bacteroides and Fusobacterium species; assay: MIC summary, anaerobic gram-negative rods; format: cell-based
Veillonella species = assay: MIC summary, Veillonella; format: cell-based; details: gram-negative cocci
anaerobic bacteria = assay: MIC summary, anaerobic bacteria; format: cell-based
S pneumoniae A20759 = format: in vivo, mice; details: Exp. Run No. C-1176, observed 5 days
[10] = system: aerobic and anaerobic gram-positive pathogens; design: species or system mice; details: mouse
[11] = format: in vivo, mice; details: acute toxicity
Description: The acute toxicity of Bu-2517 was determined by intravenous and intramuscular routes. No death occurred up to a dose of 400 mg/kg (iv) or 1600 mg/kg (im).

[12] = Streptococcus pneumoniae IID-Type-I, GC medium, inoculum 10^6 CFU/ml
[13] = Streptococcus pyogenes S-23, GC medium, inoculum 10^6 CFU/ml
[14] = Streptococcus pneumoniae A9585, GC medium, inoculum 10^6 CFU/ml
[15] = Streptococcus pneumoniae A15069, GC medium, inoculum 10^6 CFU/ml
[16] = Neisseria gonorrhoeae A15112, GC medium, inoculum 10^6 CFU/ml
[17] = Haemophilus influenzae A9729, GC medium, inoculum 10^6 CFU/ml
[18] = Haemophilus influenzae A22481, GC medium, inoculum 10^6 CFU/ml
[19] = Exp. Run No. C-1247, 1.3 × 10^6 cell/mouse, 350 × LD50, im just before challenge
[20] = Exp. Run No. C-1312, 1.3 × 10^6 cell/mouse, 200 × LD50, im just before challenge
[21] = Exp. Run No. C-1313, 1.3 × 10^2 cell/mouse, 60 × LD50, im just before challenge
[22] = Exp. Run No. C-1318, 2.5 × 10^7 cell/mouse, 11 × LD50, im just before challenge

Compound | Sensitivity Strain G393-B445 (Strain G393-B445) | Sensitivity E. coli NIHJ (E. coli NIHJ) | minimum inhibitory concentration (MIC) [1, 13] [µg/mL] | minimum inhibitory concentration (MIC) [2, 12] [µg/mL] | minimum inhibitory concentration (MIC) [3, 14] [µg/mL] | minimum inhibitory concentration (MIC) [4, 15] [µg/mL] | minimum inhibitory concentration (MIC) [5, 16] [µg/mL] | minimum inhibitory concentration (MIC) [6, 17] [µg/mL] | minimum inhibitory concentration (MIC) [7, 18] [µg/mL] | PD50 (mg/kg, im) (S. aureus Smith; [19]) [mg/kg] | PD50 (mg/kg, im) (S. aureus Smith; [20]) [mg/kg] | PD50 (mg/kg, im) (S. aureus BX-1633) [mg/kg] | PD50 (mg/kg, im) (S. pyogenes A20201; [21]) [mg/kg] | PD50 (mg/kg, im) (C. perfringens A9635; [22]) [mg/kg] | other results
CC1(C)S[C@@H]2[C@H](NC(=O)[C@H](N)c3ccccc3)C(=O)N2[C@H]1C(=O)O [Ampicillin] | S | S |  |  |  |  |  |  |  |  |  |  |  |  | MIC ([1]; S23, Streptococcus pyogenes S-23, GC medium, inoculum 10^6 CFU/ml, read-out: minimum inhibitory concentration (MIC)): 0.013 µg/mL (≈ 0.0372 µM); MIC [2, 12]: 0.025 µg/mL (≈ 0.0715 µM); MIC ([3]; Streptococcus pneumoniae A9585, GC medium, inoculum 10^6 CFU/ml, read-out: minimum inhibitory concentration (MIC)): 0.025 µg/mL (≈ 0.0715 µM); MIC ([4]; Streptococcus pneumoniae A15069, GC medium, inoculum 10^6 CFU/ml, read-out: minimum inhibitory concentration (MIC)): 0.025 µg/mL (≈ 0.0715 µM); MIC ([5]; Neisseria gonorrhoeae A15112, GC medium, inoculum 10^6 CFU/ml, read-out: minimum inhibitory concentration (MIC)): 0.4 µg/mL (≈ 1.14 µM); MIC ([6]; Haemophilus influenzae A9729, GC medium, inoculum 10^6 CFU/ml, read-out: minimum inhibitory concentration (MIC)): 0.8 µg/mL (≈ 2.29 µM); MIC ([7]; Haemophilus influenzae A22481, GC medium, inoculum 10^6 CFU/ml, read-out: minimum inhibitory concentration (MIC)): 50 µg/mL (≈ 143 µM)
Amphomycin |  |  | 12.5 | 25 | 25 | 25 | > 100 | > 100 | > 100 | 9.0 | 3.3 | 4.4 | 3.5 | 7.4 | 
CC[C@H]1OC(=O)[C@H](C)[C@@H](O[C@H]2C[C@@](C)(OC)[C@@H](O)[C@H](C)O2)[C@H](C)[C@@H](O[C@@H]2O[C@H](C)C[C@H](N(C)C)[C@H]2O)[C@](C)(O)C[C@@H](C)C(=O)[C@H](C)[C@@H](O)[C@]1(C)O [Erythromycin] | S | R |  |  |  |  |  |  |  |  |  |  |  |  | 
O=C(N[C@H](CO)[C@H](O)c1ccc([N+](=O)[O-])cc1)C(Cl)Cl [Chloramphenicol] | S | S |  |  |  |  |  |  |  |  |  |  |  |  | 
CCCCCCCCCCCC1CC(=O)N2CCCC2C(=O)NC(CO)C(=O)N2CCCC2C(=O)NC(CCCNC(=N)N)C(=O)NC(C(O)C(=O)O)C(=O)NC(CO)C(=O)N2CCC(O)C2C(=O)NC(C(O)C(=O)O)C(=O)O1 (centres unmarked) [Bu-2517] (PSPR[ξAsp(3ξ-OH)]S[X1][ξAsp(3ξ-OH)]; linker N-C via X2; configuration not given here) |  |  | 1.6 (≈ 1.42 µM) | 0.8 (≈ 0.71 µM) | 1.6 (≈ 1.42 µM) | 1.6 (≈ 1.42 µM) | > 100 | > 100 | > 100 | 3.3 | 3.3 | 3.6 | 1.5 | 6.8 | fold more active than amphomycin (staphylococci): 2-4 fold; fold more active than amphomycin (streptococci): 8-32 fold; inhibition of anaerobic gram-positive rods and cocci tested [8]: inhibited all; susceptibility of anaerobic gram-negative rod bacteria [9]: generally resistant; inhibition of two strains of Veillonella species (Veillonella species): inhibited at low concentration; antianaerobic activity, times more potent than amphomycin (anaerobic bacteria): 2-16 times; PD50 (mg/kg, im) (S. pyogenes A20201; Exp. Run No. C-1174, 1.3 × 10^2 cell/mouse, 30 × LD50, im just before challenge): 1.0 mg/kg; PD50 (mg/kg, im) (S pneumoniae A20759): 1.9 mg/kg; PD50 (mg/kg, im) (C. perfringens A9635; Exp. Run No. C-1175, 2.5 × 10^7 cell/mouse, 18 × LD50, im just before challenge): 5.5 mg/kg; in vivo activity relative to the potency of amphomycin [10]: equal to up to three times; dose up to which no death occurred ([11]; im): 1600 mg/kg; intravenous dose at which mice died ([11]; intravenous): 800 mg/kg; dose up to which no death occurred ([11]; iv): 400 mg/kg; intravenous LD50 ([11]; mice, calculated): 560 mg/kg; pH range in which aqueous solution forms a precipitate: 2.4-4.2
CN[C@H](CC(C)C)C(=O)N[C@H]1C(=O)N[C@@H](CC(N)=O)C(=O)N[C@H]2C(=O)N[C@H]3C(=O)N[C@H](C(=O)N[C@H](C(=O)O)c4cc(O)cc(O)c4-c4cc3ccc4O)[C@H](O)c3ccc(c(Cl)c3)Oc3cc2cc(c3O[C@@H]2O[C@H](CO)[C@@H](O)[C@H](O)[C@H]2O[C@H]2C[C@](C)(N)[C@H](O)[C@H](C)O2)Oc2ccc(cc2Cl)[C@H]1O [Vancomycin] |  |  |  |  |  |  |  |  |  |  |  |  |  |  | MIC ([1]; Streptococcus pyogenes, S23, read-out: minimum inhibitory concentration (MIC)): 0.8 µg/mL (≈ 0.552 µM); MIC ([2]; Streptococcus pneumoniae): 0.8 µg/mL (≈ 0.552 µM); MIC ([3]; Streptococcus pneumoniae, A9585, read-out: minimum inhibitory concentration (MIC)): 0.4 µg/mL (≈ 0.276 µM); MIC ([4]; Streptococcus pneumoniae, A15069, read-out: minimum inhibitory concentration (MIC)): 0.4 µg/mL (≈ 0.276 µM); MIC ([5]; Neisseria gonorrhoeae, A15112, read-out: minimum inhibitory concentration (MIC)): > 100 µg/mL; MIC ([6]; Haemophilus influenzae, A9729, read-out: minimum inhibitory concentration (MIC)): > 100 µg/mL; MIC ([7]; Haemophilus influenzae, A22481, read-out: minimum inhibitory concentration (MIC)): > 100 µg/mL
